This passage reports LD50 results from ChEMBL document CHEMBL3044950, “Insecticidal activity of Paraherquamides, including paraherquamide H and paraherquamide I, two new alkaloids isolated from Penicillium cluniae” (2006).

In the test the test system is Oncopeltus fasciatus. As to the kind of experiment: Insecticidal activity against Oncopeltus fasciatus fourth-instar nymphs assessed as induction of insect mortality after compound topical application measured 72 hr post compound application. It counts as functional.
For `C[C@H]1CCN2C[C@]34C[C@@]5(C(=O)Nc6c5ccc5c6OC=CC(C)(C)O5)C(C)(C)[C@@H]3C[C@]12C(=O)N4C` [PARAHERQUAMIDE E], the LD50 is 0.089 µg.
As for `CN1C(=O)[C@]23C[C@@H]4C(C)(C)[C@@]5(C[C@@]41CN2CC[C@@]3(C)O)C(=O)Nc1c5ccc2c1OC=CC(C)(C)O2` [Paraherquamide A], the LD50 was 0.32 µg.
With `CN1C(=O)[C@]23C[C@H]4C(C)(C)[C@@]5(C[C@@]41C[N+]2([O-])CC[C@@]3(C)O)C(=O)Nc1c5ccc2c1OC=CC(C)(C)O2` (stereo not given in full) [N-OXIDE PARAHERQUAMIDE], the LD50 is 7.01 µg.
On to `CN1C(=O)[C@]23C[C@H]4C(C)(C)[C@@]5(C[C@@]41CN2C(=O)C[C@@]3(C)O)C(=O)Nc1c5ccc2c1OC=CC(C)(C)O2`, for which the LD50 is 0.91 µg.
To `CN1C(=O)[C@@]23CCCN2C[C@@]12C[C@@]1(C(=O)Nc4c1ccc1c4OC=CC(C)(C)O1)C(C)(C)[C@@H]2C3` [PARAHERQUAMIDE B] belongs 16.54 µg.
